This note sets out measurements from BindingDB's records for doi:10.1021/jm010399h (University of Tennessee Health Science Center, 2002).

The test has as its target Integrase (Human immunodeficiency virus 1, UniProt Q7ZJM1). The experiment in a line: Inhibitory activity against HIV-1 Integrase (HIV-1-IN).

Sequence of Integrase (Q7ZJM1 whole entry): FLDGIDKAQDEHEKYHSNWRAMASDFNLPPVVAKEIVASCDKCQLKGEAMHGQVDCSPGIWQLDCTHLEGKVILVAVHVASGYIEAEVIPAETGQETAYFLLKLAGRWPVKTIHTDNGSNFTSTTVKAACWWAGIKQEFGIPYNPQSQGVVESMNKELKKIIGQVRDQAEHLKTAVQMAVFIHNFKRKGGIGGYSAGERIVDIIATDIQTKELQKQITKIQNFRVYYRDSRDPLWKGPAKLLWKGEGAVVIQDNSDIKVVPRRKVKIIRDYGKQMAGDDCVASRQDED

`COc1ccc(C=CC(=O)CC(=O)C=Cc2ccc(OC)c(OC)c2)cc1OC` [(1E,4Z,6E)-1,7-bis(3,4-dimethoxyphenyl)-5-hydroxyhepta-1,4,6-trien-3-one]: the IC50 was 100 µM.

In the case of `O=C(C=Cc1ccccc1)CC(=O)C=Cc1ccccc1` [5-Hydroxy-1,7-diphenylhepta-1,4,6-trien-3-one], the IC50 came out at 100 µM.

A word on the IC50: it is the point on the concentration scale where inhibition reaches its midpoint. Higher therefore signals weaker potency in that assay.
